Results published in patent US9096500B2, “Acyl sulfonamide compounds” (Pfizer Limited, priority 2010, dated 2015).

Target: T1, Nav1.7 (or SCN9A) channel (Homo sapiens, UniProt Q15858)
T1 construct: expressed in transfected cells
Assay: Nav1.7 (hSCN9A) electrophysiology assay, PatchXpress platform
Type: cell-based
Conditions: estimated IC50 from single point electrophysiology data, HEK cells stably expressing hSCN9A, held at V1/2 of inactivation, read-out: Nav1.7 EIC50
Summary of the method: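 HEK cells stably expressing hSCN9A were recorded by whole-cell voltage clamp, including on PatchXpress, at 22–24°C with extracellular solution at pH 7.4. A 20 msec step to 0 mV followed an 8 s conditioning prepulse to the empirically determined inactivation V1/2. Inhibition was taken from current amplitude before vs after compound.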

T1 sequence (Q15858 whole entry): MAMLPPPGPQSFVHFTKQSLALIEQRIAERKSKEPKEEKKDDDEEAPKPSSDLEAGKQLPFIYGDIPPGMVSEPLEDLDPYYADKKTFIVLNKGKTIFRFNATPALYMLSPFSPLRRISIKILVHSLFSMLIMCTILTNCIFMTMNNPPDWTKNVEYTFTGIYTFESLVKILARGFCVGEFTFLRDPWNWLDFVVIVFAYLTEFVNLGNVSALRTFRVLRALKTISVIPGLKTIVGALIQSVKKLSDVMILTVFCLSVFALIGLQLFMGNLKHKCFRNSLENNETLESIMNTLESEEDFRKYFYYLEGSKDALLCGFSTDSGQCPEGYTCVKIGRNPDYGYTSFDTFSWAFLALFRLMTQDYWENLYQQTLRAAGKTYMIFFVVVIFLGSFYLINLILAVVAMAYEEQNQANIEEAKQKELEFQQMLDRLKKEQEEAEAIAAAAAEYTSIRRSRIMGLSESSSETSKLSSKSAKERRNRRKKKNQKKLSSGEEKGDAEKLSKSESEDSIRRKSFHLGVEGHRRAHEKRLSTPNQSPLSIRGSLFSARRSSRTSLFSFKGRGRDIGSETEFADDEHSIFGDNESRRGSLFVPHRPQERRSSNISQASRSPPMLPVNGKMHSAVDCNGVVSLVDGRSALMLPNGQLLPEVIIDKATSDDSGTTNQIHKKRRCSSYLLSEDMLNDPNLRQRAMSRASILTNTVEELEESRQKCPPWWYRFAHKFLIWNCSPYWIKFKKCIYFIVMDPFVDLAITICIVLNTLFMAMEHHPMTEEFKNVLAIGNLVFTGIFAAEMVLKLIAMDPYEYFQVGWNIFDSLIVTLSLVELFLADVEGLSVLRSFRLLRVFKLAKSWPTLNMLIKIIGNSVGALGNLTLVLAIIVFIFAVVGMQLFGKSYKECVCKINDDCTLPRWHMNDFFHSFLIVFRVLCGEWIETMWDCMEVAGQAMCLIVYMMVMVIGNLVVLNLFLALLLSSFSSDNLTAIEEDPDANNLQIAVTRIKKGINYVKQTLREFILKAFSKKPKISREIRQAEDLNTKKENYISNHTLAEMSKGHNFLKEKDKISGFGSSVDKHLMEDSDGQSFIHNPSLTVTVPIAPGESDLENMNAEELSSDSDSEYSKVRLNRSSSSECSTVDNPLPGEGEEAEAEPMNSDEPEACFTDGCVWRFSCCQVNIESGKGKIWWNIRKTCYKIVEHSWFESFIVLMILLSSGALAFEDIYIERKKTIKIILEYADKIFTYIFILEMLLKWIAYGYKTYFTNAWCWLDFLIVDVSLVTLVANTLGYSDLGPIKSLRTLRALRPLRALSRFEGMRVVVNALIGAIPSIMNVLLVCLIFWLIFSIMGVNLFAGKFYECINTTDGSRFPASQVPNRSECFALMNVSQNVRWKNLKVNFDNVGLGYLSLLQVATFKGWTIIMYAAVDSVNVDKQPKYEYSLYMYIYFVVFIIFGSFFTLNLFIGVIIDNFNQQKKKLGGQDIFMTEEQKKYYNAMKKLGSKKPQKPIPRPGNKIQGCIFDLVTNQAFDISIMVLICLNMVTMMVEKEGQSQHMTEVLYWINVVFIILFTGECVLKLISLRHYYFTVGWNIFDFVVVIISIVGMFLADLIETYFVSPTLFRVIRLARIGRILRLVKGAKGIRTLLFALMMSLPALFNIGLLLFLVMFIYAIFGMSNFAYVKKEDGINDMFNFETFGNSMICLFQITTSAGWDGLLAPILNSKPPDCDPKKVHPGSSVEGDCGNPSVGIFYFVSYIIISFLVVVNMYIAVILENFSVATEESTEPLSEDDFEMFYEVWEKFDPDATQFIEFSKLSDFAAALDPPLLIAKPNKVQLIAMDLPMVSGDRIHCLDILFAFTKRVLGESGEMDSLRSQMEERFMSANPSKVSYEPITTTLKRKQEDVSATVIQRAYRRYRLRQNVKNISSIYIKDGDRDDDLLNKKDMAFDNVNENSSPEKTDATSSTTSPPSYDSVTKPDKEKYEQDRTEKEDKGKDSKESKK

IC50 [nM] | Structure (SMILES)
570 | CS(=O)(=O)NC(=O)c1cc(F)c(COc2cccc(F)c2)cc1F [Example 116, 2,5-difluoro-4-[(3-fluorophenoxy)methyl]-N-(methylsulfonyl)benzamide]
2200 | CS(=O)(=O)NC(=O)c1cc(F)c(COc2ccccc2OC(F)(F)F)cc1F [Example 117, 2,5-difluoro-N-(methylsulfonyl)-4-{[2-(trifluoromethoxy)phenoxy]methyl}benzamide]
> 1000 | CS(=O)(=O)NC(=O)c1cc(F)c(COc2cc(F)cc(F)c2)cc1F [Example 118, 4-[(3,5-difluorophenoxy)methyl]-2,5-difluoro-N-(methylsulfonyl)benzamide]
380 | Cc1cc(C)cc(OCc2cc(F)c(C(=O)NS(C)(=O)=O)cc2F)c1 [Example 119, 4-[(3,5-dimethylphenoxy)methyl]-2,5-difluoro-N-(methylsulfonyl)benzamide]
700 | Cc1ccc(OCc2cc(F)c(C(=O)NS(C)(=O)=O)cc2F)cc1C [Example 120, 4-[(3,4-dimethylphenoxy)methyl]-2,5-difluoro-N-(methylsulfonyl)benzamide]
2200 | COc1ccc(Cl)c(OCc2cc(F)c(C(=O)NS(C)(=O)=O)cc2F)c1 [Example 122, 4-[(2-chloro-5-methoxyphenoxy)methyl]-2,5-difluoro-N-(methylsulfonyl)benzamide]
850 | CS(=O)(=O)NC(=O)c1cc(F)c(COc2cc(C(F)(F)F)ccc2F)cc1F [Example 123, 2,5-difluoro-4-{[2-fluoro-5-(trifluoromethyl)phenoxy]methyl}-N-(methylsulfonyl)benzamide]
180 | CS(=O)(=O)NC(=O)c1cc(F)c(COc2cc(F)cc(Cl)c2)cc1F [Example 124, 4-[(3-chloro-5-fluorophenoxy)methyl]-2,5-difluoro-N-(methylsulfonyl)benzamide]
1400 | CS(=O)(=O)NC(=O)c1cc(F)c(COc2ccc(F)c(C#N)c2)cc1F [Example 125, 4-[(3-cyano-4-fluorophenoxy)methyl]-2,5-difluoro-N-(methylsulfonyl)benzamide]
> 3000 | CS(=O)(=O)NC(=O)c1cc(F)c(COc2c(F)cccc2F)cc1F [Example 126, 4-[(2,6-difluorophenoxy)methyl]-2,5-difluoro-N-(methylsulfonyl)benzamide]
2600 | CS(=O)(=O)NC(=O)c1cc(F)c(COc2ccc(C#N)c(F)c2)cc1F [Example 127, 4-[(4-cyano-3-fluorophenoxy)methyl]-2,5-difluoro-N-(methylsulfonyl)benzamide]
2900 | COc1cc(F)cc(OCc2cc(F)c(C(=O)NS(C)(=O)=O)cc2F)c1 [Example 128, 2,5-difluoro-4-[(3-fluoro-5-methoxyphenoxy)methyl]-N-(methylsulfonyl)benzamide]
1900 | CS(=O)(=O)NC(=O)c1cc(F)c(COc2ccc(F)c(F)c2Cl)cc1F [Example 129, 4-[(2-chloro-3,4-difluorophenoxy)methyl]-2,5-difluoro-N-(methylsulfonyl)benzamide]
240 | CS(=O)(=O)NC(=O)c1cc(F)c(COc2ccc3ccccc3c2)cc1F [Example 130, 2,5-difluoro-N-(methylsulfonyl)-4-[(2-naphthyloxy)methyl]benzamide]
> 1000 | Cc1cc(Cl)c(OCc2cc(F)c(C(=O)NS(C)(=O)=O)cc2F)cc1C#N [Example 131, 4-[(2-chloro-5-cyano-4-methylphenoxy)methyl]-2,5-difluoro-N-(methylsulfonyl)benzamide]
> 3000 | COc1cc(C#N)ccc1OCc1cc(F)c(C(=O)NS(C)(=O)=O)cc1F [Example 132, 4-[(4-cyano-2-methoxyphenoxy)methyl]-2,5-difluoro-N-(methylsulfonyl)benzamide]
> 1000 | CS(=O)(=O)NC(=O)c1cc(F)c(COc2ccc(Cl)cc2F)cc1F [Example 133, 4-[(4-chloro-2-fluorophenoxy)methyl]-2,5-difluoro-N-(methylsulfonyl)benzamide]
